Results on 3 compounds are retold here after patent publication US11191761B2, “SOMCL-9112 solid dispersion and preparation method thereof and SOMCL-9112 solid preparation containing SOMCL-9112 solid dispersion” (SHANGHAI INSTITUTE OF MATERIA MEDICA, CHINESE ACADEMY OF …, priority 2015, dated 2021).

≈ marks a conversion by molar mass, not a printed value.

The subject of data set [1] is P-gp. As to the kind of experiment: Permeability test using Caco-2 cell model. The settings on record: human. The procedure: (§1) Permeability Test: The permeability of SOMCL-9112 was evaluated using Caco-2 cell model.
Data set [2] can be described thus: Permeability test using Caco-2 cell model. Conditions: human. Here is the method:
as §1
(In general: Caco-2 cells form a polarised layer with tight junctions and transporters.)

Data set [3] can be described thus: Equilibrium solubility test (24 h, HPLC). It is filed as physicochemical. The settings on record: thermodynamic from solid; for solubility thermodynamic at 24 h: 37° C., 100 rpm. The procedure: Equilibrium Solubility Test: The solubility of SOMCL9112 in a series of solvents was investigated. The main solvents included water, pH 1.2 simulated gastric fluid, pH 4.5 phosphate buffer, and pH 6.8 simulated intestinal fluid. 0.5 g of SOMCL-9112 API was taken and added to 100 ml of each of the above solvents. The mixture was shaken at 37° C. shaker at 100 rpm for 24 h. The supernatant was centrifuged at 8000 rpm for 15 min and the concentration of SOMCL-9112 was determined by HPLC.

Data set [4] addresses poly-ADP-ribose polymerase (PARP) (Homo sapiens, UniProt P09874). Conditions: in words, no data shown; cited from earlier work.
Data set [5] has as its system Caco-2 cell model. Put plainly: in vitro. Here is the method: as §1
Data set [6] can be described thus: Solubility of SOMCL-9112 API and solid dispersions in water and buffers (37° C., shaking). Format: physicochemical. Conditions: for solubility at 8 h: 37 °C, thermodynamic from solid. The procedure: The SOMCL-9112 solid dispersion prepared in this Example and the SOMCL-9112 API powder were dissolved in water, simulated gastric fluid (pH 1.2), phosphate buffer (pH 4.5) and simulated intestinal fluid (pH6.8) to measure the solubility of SOMCL-9112 (37° C., shaking at 100 rpm for 8 h). The solid dispersion was sampled at 4 h and 8 h.
The SOMCL-9112 solid dispersion prepared in this example was dissolved in water, simulated gastric fluid (pH 1.2), phosphate buffer (pH 4.5) and simulated intestinal fluid (pH6.8) to measure the solubility of SOMCL-9112 (37° C., shaking at 100 rpm for 8 h).
The SOMCL-9112 solid dispersion prepared in this example was dissolved in a simulated intestinal fluid (pH6.8) to measure the solubility of SOMCL-9112 (37° C., shaking at 100 rpm for 8 h).

Sequence of poly-ADP-ribose polymerase (PARP) (P09874 whole entry): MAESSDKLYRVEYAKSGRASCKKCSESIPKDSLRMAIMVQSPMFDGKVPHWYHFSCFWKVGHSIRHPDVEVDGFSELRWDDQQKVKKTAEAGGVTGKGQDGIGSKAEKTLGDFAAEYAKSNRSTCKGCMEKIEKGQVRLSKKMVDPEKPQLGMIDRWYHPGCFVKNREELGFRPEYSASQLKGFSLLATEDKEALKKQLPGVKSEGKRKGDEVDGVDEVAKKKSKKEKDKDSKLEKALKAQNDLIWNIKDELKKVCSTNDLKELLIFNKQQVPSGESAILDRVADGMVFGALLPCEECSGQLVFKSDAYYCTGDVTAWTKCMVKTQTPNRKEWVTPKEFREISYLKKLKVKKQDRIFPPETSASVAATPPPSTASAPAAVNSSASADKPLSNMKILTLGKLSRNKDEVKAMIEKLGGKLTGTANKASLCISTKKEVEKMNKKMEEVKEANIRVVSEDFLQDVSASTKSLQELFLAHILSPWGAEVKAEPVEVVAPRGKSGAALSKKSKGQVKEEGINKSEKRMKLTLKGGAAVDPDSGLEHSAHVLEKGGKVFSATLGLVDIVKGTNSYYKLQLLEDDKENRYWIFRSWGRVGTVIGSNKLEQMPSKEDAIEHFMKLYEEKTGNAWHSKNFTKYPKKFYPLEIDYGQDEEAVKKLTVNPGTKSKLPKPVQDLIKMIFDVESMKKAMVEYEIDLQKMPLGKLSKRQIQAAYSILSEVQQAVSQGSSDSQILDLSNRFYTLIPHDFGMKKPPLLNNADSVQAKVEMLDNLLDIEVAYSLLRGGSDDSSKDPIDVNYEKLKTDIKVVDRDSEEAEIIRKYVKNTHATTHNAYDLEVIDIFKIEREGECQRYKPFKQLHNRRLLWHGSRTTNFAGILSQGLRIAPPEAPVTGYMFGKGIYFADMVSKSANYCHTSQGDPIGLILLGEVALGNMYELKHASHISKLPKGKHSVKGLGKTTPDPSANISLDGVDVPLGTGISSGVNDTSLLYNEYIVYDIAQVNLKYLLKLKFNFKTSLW

One may read the efflux ratio as the permeability from basolateral to apical divided by that in the opposite direction, in the common usage. For orientation: Papp A→B means the apparent permeability from the apical to the basolateral side of a cell layer. Low readings indicate poor permeation, high ones ready permeation. The Papp B→A is the apparent permeability from the basolateral to the apical side of a cell layer. `C[C@H]1O[C@@H](O[C@H]2[C@@H](O)C[C@H](O[C@H]3[C@@H](O)C[C@H](O[C@H]4CC[C@@]5(C)[C@H](CC[C@@H]6[C@@H]5C[C@@H](O)[C@]5(C)[C@@H](C7=CC(=O)OC7)CC[C@]65O)C4)O[C@@H]3C)O[C@@H]2C)C[C@H](O)[C@@H]1O` [Digoxin, reference compound]: the efflux ratio in data set [1] was 109. In data set [2], the apical-to-basolateral permeability (Papp A→B) was 0.09 ± 0.01 ×10⁻⁶ cm/s and the apparent permeability from basolateral to apical (Papp B→A) was found to be 9.88 ± 1.41 ×10⁻⁶ cm/s.
Regarding `CC(C)NCC(O)COc1cccc2ccccc12` (stereo not drawn) [Propranolol, reference compound], the efflux ratio in data set [1] worked out at 0.72. In data set [2], this compound registered a Papp A→B of 10.5 ± 1.97 ×10⁻⁶ cm/s and a Papp B→A of 7.57 ± 0.6 ×10⁻⁶ cm/s.
Broadly, the thermodynamic solubility is solubility found after equilibrating the solid with the medium. One may read the solubility as the dissolved amount per volume that the medium holds. A higher solubility goes with much dissolved substance. As for `CC1CN(C(=O)c2cc(Cc3n[nH]c(=O)c4ccccc34)ccc2F)Cc2nnc(C(F)(F)F)n21` (stereo not drawn) [SOMCL-9112, 4-(4-fluoro-3-(5-methyl-3-(trifluoromethyl)-5,6,7,8-4H-[1,2,4]triazolo[4,3-a]piperazine-7-carbonyl)benzyl)phthalazin-1(2H)-one], the thermodynamic solubility in data set [3] (37 °C, aqueous buffer, pH 1.2-6.8 buffer saline solution) is less than 100 µg/mL. In data set [3] (aqueous buffer, pH 4.5 phosphate buffer), this compound displayed a thermodynamic solubility at 24 h of 18.6 µg/mL (≈ 38.2 µM). This compound had a thermodynamic solubility at 24 h in data set [3] (fassgf or other biorelevant, pH 6.8 simulated intestinal fluid) of 16.2 µg/mL (≈ 33.3 µM). Besides, the thermodynamic solubility at 24 h in data set [3] (pH 1.2 simulated gastric fluid) is 10.3 µg/mL (≈ 21.2 µM). In data set [3] (water), this compound came in with a solubility (thermodynamic) at 24 h of 14.8 µg/mL (≈ 30.4 µM). In data set [4], the “Inhibitory effect on PARP” value is reported as “significant inhibitory effect”. Moreover, the Permeability characteristic entry in data set [5] is “low permeability characteristic”. Moreover, in data set [1] (Caco-2), the efflux ratio at 2 μM was found to be 22.6, the efflux ratio at 10 μM turned out to be 61.9 and the efflux ratio at 50 μM came out at 54.5. In data set [2] (Caco-2), this compound had a Papp A→B at 2 μM of 0.72 ×10⁻⁶ cm/s, a Papp A→B at 10 μM of 0.26 ± 0.03 ×10⁻⁶ cm/s, an apical-to-basolateral permeability (Papp A→B) at 50 μM of 0.34 ± 0.06 ×10⁻⁶ cm/s and a Papp B→A at 2 μM of 16.3 ± 0.34 ×10⁻⁶ cm/s. In data set [2] (Caco-2), this compound came in with a Papp B→A at 10 μM of 16.1 ± 1.05 ×10⁻⁶ cm/s and a Papp B→A at 50 μM of 18.7 ± 0.28 ×10⁻⁶ cm/s. In data set [6] (pH 1.2, simulated gastric fluid), this compound returned a solubility at 8 h of 10.5 µg/mL (≈ 21.6 µM). For the same compound, the concentration in solution in data set [6] (pH 4.5, aqueous buffer) (solubility at 8 h) was 18.9 µg/mL (≈ 38.9 µM). The same compound came in with a solubility at 8 h in data set [6] (pH 6.8, fassgf or other biorelevant) of 15.4 µg/mL (≈ 31.7 µM). Further, the solubility at 8 h in data set [6] (water) is 15.8 µg/mL (≈ 32.5 µM). In data set [6] (fassgf or other biorelevant), this compound came in with a solubility of approximately 10 µg/mL (≈ 20.6 µM).
